In patent US11325900B2, “5-(pyrimidin-4-yl)thiazol-2-yl urea derivatives as therapeutic agents” (AUCENTRA HOLDINGS PTY LTD, priority 2018, dated 2022):

Experiments:
CDK8/CycC = biological target: T1, CDK8/CycC (Homo sapiens, UniProt P49336); assay: Radiometric protein kinase assay (33PanQinase Activity Assay, ProQinase); format: biochemical; conditions: 1.0 μM ATP, 1.0 μg/50 μL substrate RBER-IRStide, duplicate measurements, read-out: CDK8 Kinase inhibition IC50
T1 construct: purchased ProQinase GmbH, Freiburg, Germany
Protocol: The kinase activity of CDK8/CycC was measured using a radiometric protein kinase assay (33PanQinase® Activity Assay) by ProQinase GmbH, Freiburg, Germany, with the protocols shown at www.proqinase.com/sites/default/files/public/uploads/WildtypeProfiler/radiometric_assay_v05_2012_manual.pdf. IC50 determination (8.3 nM with 1.0 μM ATP and 1.0 μg/50 μL of substrate RBER-IRStide) was performed as duplicate measurements and calculated using Quattro Workflow V3.1.1 (Quattro Research GmbH, Germany). Apparent inhibition constants (Ki) values were calculated from Km (ATP) and IC50 values for the respective kinases.

MV-4-11 = assay: Cell viability assay (resazurin, leukemia cell lines), 72 h growth inhibition; format: cell-based; conditions: Homo sapiens, MV4-11, MV-4-11 cells
From the text: Compounds from Example 1 may be subjected to a standard MTT (3-(4,5-dimethylthiazol-2-yl)-2,5-diphenyltetrazolium bromide) and resazurin assays on solid tumour cell lines and leukemia cell lines, respectively, as previously reported (Wang S et al., J Med Chem 47:1662-1675, 2004 and Diab S e al. CheMedChem 9:962-972, 2014). Compound concentrations required to inhibit 50% of cell growth (GI50) can be calculated using non-linear regression analysis.

T1 sequence (P49336 whole entry): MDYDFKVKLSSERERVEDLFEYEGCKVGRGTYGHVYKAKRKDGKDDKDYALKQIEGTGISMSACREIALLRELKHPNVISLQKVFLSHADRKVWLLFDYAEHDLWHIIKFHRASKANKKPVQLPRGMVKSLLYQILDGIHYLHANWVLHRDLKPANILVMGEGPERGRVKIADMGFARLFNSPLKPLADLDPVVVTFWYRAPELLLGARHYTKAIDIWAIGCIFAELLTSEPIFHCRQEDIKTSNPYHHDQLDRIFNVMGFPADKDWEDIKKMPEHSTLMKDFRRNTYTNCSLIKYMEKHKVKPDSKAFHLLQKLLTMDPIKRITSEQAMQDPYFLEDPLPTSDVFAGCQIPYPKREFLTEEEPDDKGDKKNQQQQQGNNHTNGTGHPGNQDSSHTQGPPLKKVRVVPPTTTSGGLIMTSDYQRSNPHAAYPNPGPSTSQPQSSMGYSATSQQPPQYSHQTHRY
T1 sequence (P24863 whole entry partner): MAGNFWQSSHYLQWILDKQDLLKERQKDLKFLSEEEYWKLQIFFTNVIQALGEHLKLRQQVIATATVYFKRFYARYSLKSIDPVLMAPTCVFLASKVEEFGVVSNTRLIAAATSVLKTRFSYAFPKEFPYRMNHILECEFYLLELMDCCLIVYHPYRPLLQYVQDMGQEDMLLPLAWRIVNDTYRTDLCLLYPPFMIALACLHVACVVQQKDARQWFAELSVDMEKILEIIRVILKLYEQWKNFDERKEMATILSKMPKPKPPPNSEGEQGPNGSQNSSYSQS

Row | SMILES | IC50 (CDK8/CycC) | GI50 (MV-4-11)
1 | CNc1nccc(-c2cnc(NC(=O)Nc3ccc(CN4CCN(C)CC4)c(C(F)(F)F)c3)s2)n1 [Compound 58, 1-(5-(2-(Methylamino)pyrimidin-4-yl)thiazol-2-yl)-3-(4-((4-methylpiperazin-1-yl)methyl)-3-(trifluoromethyl)phenyl)urea] | 7 nM | 1 nM
2 | CNc1nccc(-c2sc(NC(=O)Nc3ccc(CN4CCN(C(C)=O)CC4)c(C(F)(F)F)c3)nc2C)n1 [Compound 35, 1-(4-((4-Acetylpiperazin-1-yl)methyl)-3-(trifluoromethyl)-phenyl)-3-(4-methyl-5-(2-(methylamino)pyrimidin-4-yl)thiazol-2-yl)urea] | 14 nM | 85 nM
3 | CNc1ncc(Cl)c(-c2sc(NC(=O)Nc3ccc(CN4CCN(C)CC4)c(C(F)(F)F)c3)nc2C)n1 [Compound 65, 1-(5-(5-Chloro-2-(methylamino)pyrimidin-4-yl)-4-methylthiazol-2-yl)-3-(4-((4-methylpiperazin-1-yl)methyl)-3-(trifluoromethyl)phenyl)urea] | 15 nM | 55 ± 10 nM
4 | CCN1CCN(Cc2ccc(NC(=O)Nc3nc(C)c(-c4nc(NC)ncc4Cl)s3)cc2C(F)(F)F)CC1 [Compound 66, 1-(5-(5-Chloro-2-(methylamino)pyrimidin-4-yl)-4-methylthiazol-2-yl)-3-(4-((4-ethylpiperazin-1-yl)methyl)-3-(trifluoromethyl)phenyl)urea] | 21 nM | 73 ± 30 nM
5 | Cc1nc(NC(=O)Nc2ccc(CN3CCOCC3)c(C(F)(F)F)c2)sc1-c1ccnc(N)n1 [Compound 64, 1-(5-(2-Aminopyrimidin-4-yl)-4-methylthiazol-2-yl)-3-(4-(morpholinomethyl)-3-(trifluoromethyl)phenyl)urea] | 15 nM | 275 ± 50 nM
6 | CNc1nccc(-c2sc(NC(=O)Nc3ccc(F)cc3C(F)(F)F)nc2C)n1 [Compound 7, 1-(4-fluoro-2-(trifluoromethyl)-phenyl)-3-(4-methyl-5-(2-(methylamino)-pyrimidin-4-yl)thiazol-2-yl)urea] | 2300 nM | –
7 | CCNc1nccc(-c2sc(NC(=O)Nc3ccc(CN4CCN(CC)CC4)c(C(F)(F)F)c3)nc2C)n1 [Compound 53, 1-(5-(2-(Ethylamino)pyrimidin-4-yl)-4-methylthiazol-2-yl)-3-(4-((4-ethylpiperazin-1-yl)methyl)-3-(trifluoromethyl)phenyl)urea] | 90 nM | < 1 nM
8 | CNc1nccc(-c2sc(NC(=O)Nc3ccc(CN4CCC(C)CC4)c(C(F)(F)F)c3)nc2C)n1 [Compound 40, 1-(4-Methyl-5-(2-(methylamino)-pyrimidin-4-yl)thiazol-2-yl)-3-(4-((4-methylpiperidin-1-yl)methyl)-3-(trifluoromethyl)phenyl)urea] | 34 nM | 2510 ± 390 nM
9 | CC(=O)N1CCN(Cc2ccc(NC(=O)Nc3nc(C)c(-c4ccnc(N(C)C)n4)s3)cc2C(F)(F)F)CC1 [Compound 50, 1-(4-((4-Acetylpiperazin-1-yl)methyl)-3-(trifluoromethyl)-phenyl)-3-(5-(2-(dimethylamino)-pyrimidin-4-yl)-4-methylthiazol-2-yl)urea] | 202 nM | 612 ± 60 nM
10 | CNc1nccc(-c2sc(NC(=O)Nc3ccc(F)cc3C)nc2C)n1 [Compound 6, 1-(4-Fluoro-2-methylphenyl)-3-(4-methyl-5-(2-(methylamino)-pyrimidin-4-yl)thiazol-2-yl)urea] | 233 nM | –
11 | Cc1nc(NC(=O)Nc2ccc(CN3CCN(C(C)C)CC3)c(C(F)(F)F)c2)sc1-c1ccnc(N)n1 [Compound 63, 1-(5-(2-Aminopyrimidin-4-yl)-4-methylthiazol-2-yl)-3-(4-((4-isopropylpiperazin-1-yl)methyl)-3-(trifluoromethyl)phenyl)urea] | 13 nM | 3 nM
12 | CNc1ncc(Cl)c(-c2sc(NC(=O)Nc3ccc(CN4CCN(C(C)C)CC4)c(C(F)(F)F)c3)nc2C)n1 [Compound 67, 1-(5-(5-Chloro-2-(methylamino)pyrimidin-4-yl)-4-methylthiazol-2-yl)-3-(4-((4-isopropylpiperazin-1-yl)methyl)-3-(trifluoromethyl)phenyl)urea] | 30 nM | 174 ± 10 nM
13 | CNc1nccc(-c2sc(NC(=O)Nc3ccc(C(F)(F)F)cc3C(F)(F)F)nc2C)n1 [Compound 8, 1-(2,4-Bis(trifluoromethyl)phenyl)-3-(4-methyl-5-(2-(methylamino)-pyrimidin-4-yl)thiazol-2-yl)urea] | 65 nM | –
14 | CCNc1nccc(-c2sc(NC(=O)Nc3ccc(CN4CCOCC4)c(C(F)(F)F)c3)nc2C)n1 [Compound 56, 1-(5-(2-(Ethylamino)pyrimidin-4-yl)-4-methylthiazol-2-yl)-3-(4-(morpholinomethyl)-3-(trifluoromethyl)phenyl)urea] | 21 nM | 529 ± 120 nM
15 | CNc1nccc(-c2sc(NC(=O)Nc3ccc(C(F)(F)F)cc3)nc2C)n1 [Compound 41, 1-(4-Methyl-5-(2-(methylamino)pyrimidin-4-yl)thiazol-2-yl)-3-(4-(trifluoromethyl)phenyl)urea] | 19 nM | –
16 | CNc1nccc(-c2sc(NC(=O)Nc3ccc(CN4CCCCC4)c(C(F)(F)F)c3)nc2C)n1 [Compound 38, 1-(4-Methyl-5-(2-(methylamino)-pyrimidin-4-yl)thiazol-2-yl)-3-(4-(piperidin-1-ylmethyl)-3-(trifluoromethyl)phenyl)urea] | – | 994 ± 130 nM
17 | CNc1nccc(-c2sc(NC(=O)Nc3ccccc3C(F)(F)F)nc2C)n1 [Compound 2, 1-(4-Methyl-5-(2-(methylamino)-pyrimidin-4-yl)thiazol-2-yl)-3-(2-(trifluoromethyl)phenyl)urea] | 1360 nM | –

Other lines, results leading:

Row | IC50 (CDK8/CycC) | GI50 (MV-4-11) | SMILES
18 | 79 nM | 1 nM | CSc1nccc(-c2sc(NC(=O)Nc3ccc(CN4CCN(C)CC4)c(C(F)(F)F)c3)nc2C)n1 [Compound 80, 1-(4-Methyl-5-(2-(methylthio)pyrimidin-4-yl)thiazol-2-yl)-3-(4-((4-methyl-piperazin-1-yl)methyl)-3-(trifluoromethyl)phenyl)urea]
19 | 272 nM | 3250 ± 350 nM | CNc1ncc(C#N)c(-c2sc(NC(=O)Nc3ccc(CN4CCN(S(C)(=O)=O)CC4)c(C(F)(F)F)c3)nc2C)n1 [Compound 74, 1-(5-(5-Cyano-2-(methylamino)pyrimidin-4-yl)-4-methylthiazol-2-yl)-3-(4-((4-(methylsulfonyl)piperazin-1-yl)methyl)-3-(trifluoromethyl)phenyl)urea]
20 | 64 nM | 432 ± 10 nM | CCN1CCN(Cc2ccc(NC(=O)Nc3nc(C)c(-c4nc(NC)ncc4C#N)s3)cc2C(F)(F)F)CC1 [Compound 72, 1-(5-(5-Cyano-2-(methylamino)pyrimidin-4-yl)-4-methylthiazol-2-yl)-3-(4-((4-ethylpiperazin-1-yl)methyl)-3-(trifluoromethyl)phenyl)urea]
21 | 74 nM | < 1 nM | Cc1nc(NC(=O)Nc2ccc(CN3CCN(C)CC3)c(C(F)(F)F)c2)sc1-c1ccnc(C(C)C)n1 [Compound 76, 1-(5-(2-Isopropylpyrimidin-4-yl)-4-methylthiazol-2-yl)-3-(4-((4-methylpiperazin-1-yl)methyl)-3-(trifluoromethyl)phenyl)urea]
22 | 177 nM | 715 ± 10 nM | CSc1nccc(-c2sc(NC(=O)Nc3ccc(CN4CCN(C(C)=O)CC4)c(C(F)(F)F)c3)nc2C)n1 [Compound 81, 1-(4-((4-Acetylpiperazin-1-yl)methyl)-3-(trifluoromethyl)phenyl)-3-(4-methyl-5-(2-(methylthio)pyrimidin-4-yl)thiazol-2-yl)urea]
23 | 132 nM | 4690 ± 420 nM | CNc1ncc(Cl)c(-c2sc(NC(=O)Nc3ccc(CN4CCN(S(C)(=O)=O)CC4)c(C(F)(F)F)c3)nc2C)n1 [Compound 69, 1-(5-(5-Chloro-2-(methylamino)pyrimidin-4-yl)-4-methylthiazol-2-yl)-3-(4-((4-(methylsulfonyl)piperazin-1-yl)methyl)-3-(trifluoromethyl)phenyl)urea]
24 | 121 nM | 1560 ± 100 nM | CSc1nccc(-c2sc(NC(=O)Nc3ccc(CN4CCOCC4)c(C(F)(F)F)c3)nc2C)n1 [Compound 83, 1-(4-Methyl-5-(2-(methylthio)pyrimidin-4-yl)thiazol-2-yl)-3-(4-(morpholinomethyl)-3-(trifluoromethyl)phenyl)urea]
25 | 25 nM | 273 ± 10 nM | CNc1ncc(F)c(-c2sc(NC(=O)Nc3ccc(CN4CCOCC4)c(C(F)(F)F)c3)nc2C)n1 [Compound 70, 1-(5-(5-Fluoro-2-(methylamino)pyrimidin-4-yl)-4-methylthiazol-2-yl)-3-(4-(morpholinomethyl)-3-(trifluoromethyl)phenyl)urea]
26 | 293 nM | 1590 ± 90 nM | Cc1nc(NC(=O)Nc2ccc(CN3CCN(S(C)(=O)=O)CC3)c(C(F)(F)F)c2)sc1-c1ccnc(C(C)C)n1 [Compound 78, 1-(5-(2-Isopropylpyrimidin-4-yl)-4-methylthiazol-2-yl)-3-(4-((4-(methylsulfonyl)-piperazin-1-yl)methyl)-3-(trifluoromethyl)phenyl)urea]
27 | 220 nM | 721 ± 30 nM | CSc1nccc(-c2sc(NC(=O)Nc3ccc(CN4CCN(S(C)(=O)=O)CC4)c(C(F)(F)F)c3)nc2C)n1 [Compound 82, 1-(4-Methyl-5-(2-(methylthio)pyrimidin-4-yl)thiazol-2-yl)-3-(4-((4-(methyl-sulfonyl)piperazin-1-yl)methyl)-3-(trifluoromethyl)phenyl)urea]
